Read-outs that look alike come from different tables or passages of the source.
Legend:
tumor lesions = conditions: 7 human subjects, PET scanner; cited from earlier work
[1] = system: tumor lesions in 33 patients; conditions: single photon rectilinear scanner; cited from earlier work
Morris 51236 hepatomas = conditions: cited from earlier work
[2] = system: DU145, human prostate cancer cells implanted in flanks; test: tissue distribution in SCID mice bearing DU145 tumors; type: in vivo; conditions: DU145 tumors, SCID mice, time points sampled post injection
Protocol: (§1) For the in vitro amino acid uptake studies, all cells can be grown to monolayer confluency in T-175 culture flasks [Corning, Corning, N.Y.] (approx. 1×10^8 cells/flask) in Dulbecco's Modified Eagle's Medium (DMEM) [Sigma, St. Louis, Mo.] in a humidified incubator (37° C., 5% CO2/95% air). Media are supplemented with 10% fetal calf serum [Hyclone, Logan, Utah], and antibiotics (10,000 U/ml penicillin and 10 mg/ml streptomycin) (Sigma, St. Louis, Mo.). For tissue culture passage, monolayer cells are detached by gentle trypsinization, resuspended in complete media, and split 1:10 into new T-flasks. Cultures are passaged weekly, and fed fresh media every 2 to 3 days. To initiate tumor growth in SCID mice, 1×10^6 cells are injected s.c. bilaterally into the flanks (inguinal region) of the recipient animals using a 1 ml syringe with a 27 gauge needle. Ex vivo experiments can be performed with animals containing tumors weighing between 500 mg and 1 g, as estimated by caliper measurement (tumor weight=(π/6)*abc, where a, b and c are the tumor length, width and height, respectively).
(§2) Tissue distribution of the compounds is measured in SCID mice (average weight, 20-25 g) bearing human tumors as follows. The candidate radioligands (20 uCi in 0.4 ml 0.9% NaCl) are injected into the tail vein of tumor-bearing mice. […] Tissues (blood, heart, liver, lungs, kidneys, bone, thyroid, muscle, brain and tumor) are excised, rinsed in saline, and blotted dry. The tissues are weighed, placed into 12×75 mm glass vials, the radioactivity determined with a gamma counter, and the percent dose/gram calculated. Total activities of blood and muscle are calculated by assuming that they account for 7% and 40% of the total body mass, respectively.
(§3) Tables 3-7 show the results of the biodistribution studies with the separate enantiomers of anti-2-[^18F]FACPC and racemic anti-2-[^18F]FACBC as a comparison in SCiD mice implanted in their flanks with A549, human lung cancer cells and DU145, human prostate cancer cells.

[3] = system: A549, human lung cancer cells implanted in flanks; test: tissue distribution in SCID mice bearing A549 tumors; type: in vivo; conditions: for tissue distribution, blood / tissue distribution, bone / tissue distribution, brain / tissue distribution, heart / tissue distribution, kidney / tissue distribution, liver / tissue distribution, lung / tissue distribution, muscle / tissue distribution, pancreas / tissue distribution, spleen / tissue distribution, tumor: A549 tumor-bearing SCID mice, tail vein, ave, listed as Anti 2-[^18F]FACPC Enantiomer 2
Protocol: as §1, §2, §3

[4] = system: LnCap Human Prostate carcinoma cells; test: in vitro amino acid uptake in LnCap cells; type: cell-based
Protocol: (§4) Compounds have been evaluated in vitro for tumor binding specificity (i.e. uptake cells) using a variety of tumor cell lines available in the art, along with reference compounds such as Me-AlB and BCH. Detailed description of these assays can be found in Martarello et al. (2002) Journal of Medicinal Chemistry, 45:2250-2259 and McConathy et al. (2003) Nuclear Medicine and Biology, 30:477-490. […]
(§5) In the in vitro studies the uptake rate of each amino acid compound is measured in each tumor line, as well as the dominant transport mechanisms of each tumor cell line. After trypsinization, cells are resuspended in serum-free media, then counted on a hemocytometer, with viability assessed through Trypan blue staining. […] The vials are placed in a Cobra-II gamma counter (Packard, Meriden, Conn.), with the activity per cell number determined. […] Saline washes are performed as described above, and the filtered cells' radioactivity determined on the gamma counter. […]
(§6) The uptake of all compounds were measured in human and rat cancer cell lines and the dominant transport (“A” and “L”) mechanism of each culture were determined. […]

9L Rat gliosarcoma cells = test: in vitro amino acid uptake in 9L cells; type: cell-based
From the text: (§7) Compounds have been evaluated in vitro for tumor binding specificity (i.e. uptake cells) using a variety of tumor cell lines available in the art, along with reference compounds such as Me-AlB and BCH. Detailed description of these assays can be found in Martarello et al. (2002) Journal of Medicinal Chemistry, 45:2250-2259 and McConathy et al. (2003) Nuclear Medicine and Biology, 30:477-490. These so called “amino acid uptake studies” are typically carried out with radiolabeled compounds in at least five phenotypically different human tumor cell lines (e.g., A549 lung carcinoma, MB468 breast carcinoma, DU145 prostate carcinoma-androgen independent, LnCap-androgen dependent, SKOV3 ovarian carcinoma, U87 glial blastoma, MIA PaCa-2 pancreas carcinoma, MDA MB231 breast carcinoma). These tumor cell lines can be grown either in vitro or in vivo with severe combined immunodeficiency (SCID) mice as a host. The afore-mentioned tumor cell lines are available at the Winship Cancer Institute of Emory University.
(§8) For the in vitro amino acid uptake studies, all cells can be grown to monolayer confluency in T-175 culture flasks [Corning, Corning, N.Y.] (approx. 1×10^8 cells/flask) in Dulbecco's Modified Eagle's Medium (DMEM) [Sigma, St. Louis, Mo.] in a humidified incubator (37° C., 5% CO2/95% air). […]
as §5, §6

[5] = system: MIA PaCa-2 Human Pancreas carcinoma cells; test: in vitro amino acid uptake in MIA PaCa-2 cells; type: cell-based
Protocol: as §4, §5, §6

[6] = system: DU145 Human Prostate carcinoma cells; test: in vitro amino acid uptake in DU145 cells; type: cell-based
From the text: as §7, §8, §5, §6

U87 Human Glioma cells = test: in vitro amino acid uptake in U87 cells; type: cell-based
From the text: as §7, §8, §5, §6

[7] = system: MDA MB231 Human Breast carcinoma cells; test: in vitro amino acid uptake in MDA MB231 cells; type: cell-based
Protocol: as §4, §5, §6

[8] = system: MDA MB468 Human Breast carcinoma cells; test: in vitro amino acid uptake in MDA MB468 cells; type: cell-based
From the text: as §7, §8, §5, §6

[9] = system: SKOV3 Human Ovarian carcinoma cells; test: in vitro amino acid uptake in SKOV3 cells; type: cell-based
From the text: as §7, §8, §5, §6

tumor cells = test: overall conclusion of uptake studies in cancer cells in vitro; type: cell-based
Protocol: In the in vitro studies the uptake rate of each amino acid compound is measured in each tumor line, as well as the dominant transport mechanisms of each tumor cell line. After trypsinization, cells are resuspended in serum-free media, then counted on a hemocytometer, with viability assessed through Trypan blue staining. Approximately 1×10^7 cells are exposed to each compound (15 μCi) in 15 ml of amino acid free media for 5, 10, 15, 30 and 60 minutes at 37° C. Cells are then centrifuged at 150×g for 5 minutes, rinsed in 5 ml cold-saline, recentrifuged, resuspended in 3 ml saline, and placed into 12×75 mm glass vials (Fisher, Pittsburgh, Pa.). The vials are placed in a Cobra-II gamma counter (Packard, Meriden, Conn.), with the activity per cell number determined. Inhibition studies determine the dominant transport mechanism (L, A or ASC) for each line [Martarello et al. (2002) supra; McConathy et al. (2003) supra]. For these studies, cells are exposed to the compounds for 30 minutes in amino acid free media containing one of three inhibitors (2-amino-norbornyl-2-carboxylic acid (BCH), 10 mM; α-(methylamino)-isobutyric acid (MeAlB), 10 mM; and an alanine-serine-cysteine mixture 1:1:1 (acs), 10 mM). Saline washes are performed as described above, and the filtered cells' radioactivity determined on the gamma counter. Comparisons with the 30 minute control uptake indicate the major transporters used. Results of these studies are found in FIGS. 1-18.
Approximately 10^6 cells were exposed to the [^18F]amino acid candidate (5 μCi) in 3 ml of amino acid-free media±transporter inhibitors (10 mM) for 30 minutes under incubation conditions by the method previously described (McConathy, J.; Martarello, L.; Malveaux, E.; Camp, V.; Bowers, G.; Olson, J.; Goodman, M. (2002) Radiolabeled amino acids for tumor imaging with PET: radiosynthesis and biological evaluation of [^18F]2-amino-3-fluoro-2-methylpropanoic acid and [^18F]3-fluoro-2-methyl-2-(methylamino)-propanoic acid. J. Med. Chem. 45, 2240-2249). The inhibition studies determined the dominant transport mechanism (L, A) for each candidate PET amino acid for each tumor model. 2-Methylaminoisobutyric acid (MeAlB) and 2-aminobicyclo-[2.2.1]-heptane-2-carboxylic acid (BCH) serve as inhibitors for the “A”, “L” transport systems, respectively.

[10] = system: A549 Human Lung adenocarcinoma cells; test: in vitro amino acid uptake in A549 cells; type: cell-based
From the text: as §7, §8, §5, §6

[11] = carbon-14 labeled, rats transplanted with Morris 51236 hepatomas

Structure (SMILES): NC1([11C](=O)O)CCC1 [[^11C]ACBC, 1-aminocyclobutane-1-[^11C]carboxylic acid]
- uptake in lesions (tumor lesions): increased uptake was observed in lesions in all subjects

Structure (SMILES): NC1([11C](=O)O)CCCC1 [[^11C]ACPC, 1-Aminocyclopentane-1 [^11C]Carboxylic Acid]
- lesions with increased uptake [1]: 70%
- uptake in lesions (tumor lesions): increased uptake was observed in lesions in all subjects

Structure (SMILES): NC1(C(=O)O)CCCCC1 [ACHC, 1-amino-cyclohexane-1-carboxylic acid]
- tumor uptake (Morris 51236 hepatomas; [11]): 0.9 % dose/g

Structure (SMILES): N[C@]1(C(=O)O)CCC[C@@H]1[18F] (mixture of isomers) [Enantiomer 13, (1S,2S) and (1R,2R) anti-1-amino-2-[^18F]fluorocyclopentyl-1-carboxylic acid]
- uptake of radioactivity in the tumors compared with muscle [2]: greater than muscle
- uptake of radioactivity in the tumors compared with muscle ([3]; A549 tumors, SCID mice, time points sampled post injection): greater than muscle

Structure (SMILES): NC1(C(=O)O)CC1 [ACPRC, 1-amino-cyclopropane-1-carboxylic acid]
- tumor uptake (Morris 51236 hepatomas; [11]): 1.2 % dose/g

Structure (SMILES): N[C@]1(C(=O)O)CCC[C@@H]1[18F] (single isomer, unassigned; enantiomer 2) [Enantiomer 2, anti-2-[^18F]FACPC]
- % Dose uptake per 0.5 × 10−6 Cells [4]: 3.8 % Dose/0.5 × 10^−6
- % Dose uptake per 0.5 × 10−6 Cells (9L Rat gliosarcoma cells): 7.5 % Dose/0.5 × 10^−6
- % Dose uptake per 0.5 × 10−6 Cells [5]: 3.8 % Dose/0.5 × 10^−6
- % Dose uptake per 0.5 × 10−6 Cells [6]: 4.7 % Dose/0.5 × 10^−6
- tissue distribution, blood ([3]; 15 min): 3.68 percent dose/gram
- tissue distribution, bone ([3]; 15 min): 2.50 percent dose/gram
- tissue distribution, brain ([3]; 15 min): 0.53 percent dose/gram
- tissue distribution, heart ([3]; 15 min): 3.18 percent dose/gram
- tissue distribution, kidney ([3]; 15 min): 10.81 percent dose/gram
- tissue distribution, liver ([3]; 15 min): 2.86 percent dose/gram
- tissue distribution, lung ([3]; 15 min): 4.75 percent dose/gram
- tissue distribution, muscle ([3]; 15 min): 2.07 percent dose/gram
- tissue distribution, pancreas ([3]; 15 min): 40.68 percent dose/gram
- tissue distribution, spleen ([3]; 15 min): 9.37 percent dose/gram
- tissue distribution, tumor ([3]; 15 min): 8.13 percent dose/gram
- tissue distribution, blood ([3]; 60 min): 1.17 percent dose/gram
- tissue distribution, bone ([3]; 60 min): 1.77 percent dose/gram
- tissue distribution, brain ([3]; 60 min): 0.58 percent dose/gram
- tissue distribution, heart ([3]; 60 min): 1.82 percent dose/gram
- tissue distribution, kidney ([3]; 60 min): 3.73 percent dose/gram
- tissue distribution, liver ([3]; 60 min): 1.22 percent dose/gram
- tissue distribution, lung ([3]; 60 min): 1.77 percent dose/gram
- tissue distribution, muscle ([3]; 60 min): 1.78 percent dose/gram
- tissue distribution, pancreas ([3]; 60 min): 16.42 percent dose/gram
- tissue distribution, spleen ([3]; 60 min): 2.95 percent dose/gram
- tissue distribution, tumor ([3]; 60 min): 5.78 percent dose/gram
- % Dose uptake per 0.5 × 10−6 Cells (U87 Human Glioma cells): 17 % Dose/0.5 × 10^−6
- % Dose uptake per 0.5 × 10−6 Cells [7]: 6.4 % Dose/0.5 × 10^−6
- % Dose uptake per 0.5 × 10−6 Cells [8]: 7.5 % Dose/0.5 × 10^−6
- % Dose uptake per 0.5 × 10−6 Cells [9]: 5.5 % Dose/0.5 × 10^−6
- selective uptake in tumor cells (tumor cells): selectively taken up in tumor cells
- % Dose uptake per 0.5 × 10−6 Cells [10]: 9.6 % Dose/0.5 × 10^−6

Structure (SMILES): NC1(C(=O)O)CCCC1 [ACPC, 1-amino-cyclopentane-1-carboxylic acid]
- tumor uptake (Morris 51236 hepatomas; [11]): 3.6 % dose/g

Structure (SMILES): NC1(C(=O)O)CCC1 [ACBC]
- tumor uptake (Morris 51236 hepatomas; rat, in vivo): 4.6 % dose/g

Source: patent US20130123618A1, “Imaging Agents” (priority 2008, published 2013)
